Key:
rats = experiment: Acute oral toxicity, Fixed Dose Procedure (OECD Guideline 420); format: in vivo; details: for clinical symptoms: 5 animals; for clinical outcome of the animal in the pilot experiment: single animal
Procedure: (§1) Fixed Dose Procedure (OECD Guideline 420):
(§2) (RS)-MFTE and (RS)-PFTE were test under OECD, Test No. 420: Acute Oral Toxicity—Fixed Dose Procedure, OECD Guidelines for the Testing of Chemicals, Section 4, OECD Publishing, Paris (2002), which is hereby incorporated by reference in its entirety.
(§3) Groups of five young adult animals (rats) of one sex in a stepwise procedure using the fixed doses of 5, 50, 300 and 2000 mg/kg in the main study as shown in FIG. 12B. Most tests are likely to be completed with either one or two sighting study steps and one main study step, thus using between 5 and 7 animals. Up to 5 animals are used in a limit test.

[1] = as above; format: in vivo, rats; details: in vivo; rat, acute oral
Procedure: as §1, §2, §3

Drosophila melanogaster [2] = experiment: Residual exposure knockdown bioassay on female fruit flies; format: in vivo; details: for speed of action (lethality) of enantiomers and racemate, in words: fruit flies, different dosages (FIG. 9, FIG. 10)
Drosophila melanogaster [3] = experiment: as above; format: in vivo; details: for KT50 against female Drosophila, comparison in words: dosage 1.06*10^−1 g/m^2, FIG. 8; for Drosophila knockdown times, comparison in words: Example 5, FIG. 5; for observed symptoms of exposed flies: fruit flies; for KT50 (median knockdown time): female Drosophila melanogaster, 2.0±0.1 mg, logistic regression of knockdown-time curves
From the text: Each symbol of FIGS. 2A-C corresponds to one female. Dashed lines indicate logistic regression of knockdown-time curves. The median knockdown time for each curve is denoted by its intersection with the horizontal KT50 marker. FIG. 2D illustrates comparison of the knockdown speeds (1/KT50) relative to DDT I. Error bars represent 95% confidence intervals (CI). Values with the same letter have overlapping 95% Cls and differences are considered insignificant. Inset: Photo of a typical female fly.
Female Drosophila melanogaster were exposed to 2.0±0.1 mg of DFDT, MFDT and DDT separately, in their crystalline and amorphous forms. The insects were monitored with a video camera until the entire population ceased to move. The videos then were analyzed to determine the knockdown times—a proxy for lethality—for each individual insect (Videos S1-S5). […] KT50 values, the times required for death of 50% of the insects, are the standard for assessing insecticide lethality (the lifetimes of individual insects differ because of the random nature of their contact with insecticide surfaces and varied susceptibility of a population). Here, the KT50 values were calculated by logistic regression of knockdown-time curves. […] Knockdown speeds, reciprocals of KT50 values, decreased in inverse order (FIG. 2d). The amorphous forms are always faster than their respective crystalline counterparts, with a-DFDT the fastest. […] Overall, the lethalities of the different solid forms of a given compound, as deduced from their knockdown speeds, were inversely correlated with their thermodynamic stability.
The relationships between functional groups that are directly attached to the central carbon atom and Drosophila knockdown times are shown in FIG. 6. […] Physical state of the compound at room temperature, and the median knockdown time (KT50) against female Drosophila are denoted below each compound. The dosage for the residual bioassay was 1.06*10^−1 g/m^2.
Residual action, which refers to the length of time a compound or composition may exist in a particular environment and remain effective, is a good proxy for the insecticidal activity of a compound. Each crystalline form was ground to a particle size similar to that of the liquid particles prepared by fine mist spraying. Lethality measurements were performed in duplicate for each solid-state form, each accompanied by two controls (no insecticide). Each microcrystalline form was added to a 10.0 cm diameter polystyrene petri dish (2.0 mg per dish), which was subsequently shaken to disperse the microcrystals throughout the petri dish. Amorphous forms were prepared by fine mist spraying a stock solution containing 70.0 mg of the respective insecticide in 10.0 mL hexane onto the top and bottom of 10.0 cm diameter polystyrene petri dishes (two sprays=0.280 mL) and allowing the hexane to evaporate at room temperature, resulting in 2.0 mg of liquid insecticide in each petri dish. 25 female adults Drosophila were sedated with carbon dioxide and flies were transferred to each petri dish. The top of the dish was then placed over the bottom and the motion of the mosquitos or fruit flies was recorded with a video camera (Sony HDR-CX455). The knockdown time was measured for each individual, with knockdown associated with an insect laying on the bottom surface of the petri dish in a supine position without moving from its original position after 10 seconds.

[4] = Stability of amorphous forms at room temperature; format: physicochemical
From the text: DFDT and MFDT were synthesized from trichloroacetate and para-fluorobenzaldehyde to give 1-(4-fluorophenyl)-2,2,2-trichloroethanol. Subsequent reaction with fluorobenzene or chlorobenzene afforded DFDT and MFDT, respectively. Two polymorphic crystalline forms of DFDT (DFDT-I, -II) and three polymorphic forms of racemic MFDT ((RS)-MFDT-I, -II, -III) were discovered. DFDT-I single crystals could be obtained from a variety of solvents and DFDT-II single crystals from diethyl ether. (RS)-MFDT-I could be crystallized from a variety of solvents. The (R)- and (S)-MFDT enantiomers were resolved by chromatography on a chiral stationary phase, and single crystals were grown from a variety of solvents. Curiously, single crystals of (RS)-MFDT-II and -III were obtained by crystallization from the melt at >30° C. and 25° C., respectively, using seed crystals of either the R or S isomers. These crystalline forms, six total, were characterized by single crystal X-ray diffraction (FIG. 1). […] The Tm of the enantiomorphs was 47° C. Amorphous DFDT (a-DFDT), prepared by supercooling melts or fine mist spraying of solutions, afforded broad X-ray scattering halos (FIG. 1H) and was stable for 25 days at room temperature. Amorphous resolved and racemic MFDT (a-(R)- and a-(S)-MFDT, and a-(RS)-MFDT, respectively; FIG. 1H) were stable for 10 days at room temperature. These observations contrast with a-DDT, which transformed to crystalline DDT Form I within 5 hours at room temperature.

[5] = tested on: Anopheles quadrimaculatus; experiment: Knockdown bioassay on female Anopheles mosquitoes in coated petri dishes; format: in vivo; details: for knockdown speed, times faster than a-DDT: Anopheles and Aedes mosquitoes (FIG. 3F); for KT50: female Anopheles, 1.0±0.1 mg amorphous form in petri dish
From the text: (§4) Each symbol corresponds to one female. Dashed lines indicate logistic regression of knockdown-time curves. The median knockdown time for each curve is denoted by its intersection with the horizontal KT50 marker. FIG. 3F illustrates the relative knockdown speeds of amorphs. Error bars represent 95% confidence intervals (CI). Values with the same letter have overlapping 95% Cls and differences are considered insignificant. Insets: Photos of typical Anopheles and Aedes mosquito females.
(§5) Female Anopheles and Aedes mosquitoes exposed to 1.0±0.1 mg of various crystalline forms followed the same knockdown trend as Drosophila, see Example 2, with KT50 values decreasing in the order DDT-I>(RS)-MFDT-I>DFDT-I>DFDT-II (FIGS. 3A and 3B). […] Female mosquitoes were introduced into petri dishes coated with 1.0±0.1 mg of the amorphous forms, and their motions recorded (Videos S8-S10). KT50 values for a-DFDT and a-(RS)-MFDT against Anopheles were 29 and 39 minutes, and against Aedes were 30 and 40 minutes, respectively (FIGS. 3C and 3D). Corresponding KT50 values for a-DDT were much larger (120 and 112 minutes). Accordingly, the knockdown speeds for a-DFDT and a-(RS)-MFDT are 4 and 3 times faster than a-DDT, respectively (FIG. 3F).

Aedes aegypti = experiment: Knockdown bioassay on female Aedes mosquitoes in coated petri dishes; format: in vivo; details: 1.0±0.1 mg amorphous form in petri dish
From the text: as §4, §5

Structure (SMILES): OC(c1ccc(F)cc1)C(Cl)(Cl)Cl (racemic) [(RS)-MFTE, 1-(4-fluorophenyl)-2,2,2-trichloro-ethanol]
- necropsy findings (rats; 300 mg/kg b.w.): no relevant changes were noted except for the spleen
- clinical symptoms (rats; 300 mg/kg b.w.): only mild symptoms (underactivity)
- necropsy findings (rats; 2000 mg/kg b.w.): changes were seen mainly in the gastrointestinal tract
- clinical outcome of the animal in the pilot experiment (rats; 2000 mg/kg b.w.): had to be euthanized 1 day after application
- LD50 [1]: 300 to 2000 mg/kg
- speed of action (lethality) of enantiomers and racemate, in words (Drosophila melanogaster [2]): lies in between of (R) and (S)-MFTE
- KT50 against female Drosophila, comparison in words (Drosophila melanogaster [3]): comparable to that of crystalline deltamethrin Form I

Structure (SMILES): OC(c1c(F)c(F)c(F)c(F)c1F)C(Cl)(Cl)Cl (racemic) [(RS)-PFTE, 1-perfluorophenyl-2,2,2-trichloro-ethanol]
- necropsy findings (rats; 300 mg/kg b.w.): no abnormal findings during necropsy
- clinical symptoms (rats; 300 mg/kg b.w.): no clinical symptoms except for soft feces
- necropsy findings (rats; 2000 mg/kg b.w.): changes were seen mainly in the gastrointestinal tract
- clinical outcome of the animal in the pilot experiment (rats; 2000 mg/kg b.w.): had to be euthanized on day 1 approx. 3 h after application
- LD50 [1]: 300 to 2000 mg/kg
- Drosophila knockdown times, comparison in words (Drosophila melanogaster [3]): smaller than amorphous DFDT
- KT50 against female Drosophila, comparison in words (Drosophila melanogaster [3]): comparable to that of crystalline deltamethrin Form I

Structure (SMILES): Fc1ccc(C(c2ccc(Cl)cc2)C(Cl)(Cl)Cl)cc1 (racemic) [a-(RS)-MFDT, 1,1,1-trichloro-2,2-(4-chlorophenyl)-(4-fluorophenyl)-ethane]
- time the amorphous form was stable ([4]; room temperature): 10 days
- knockdown speed, times faster than a-DDT [5]: 3 times
- KT50 [5]: 39 min
- KT50 (Aedes aegypti): 40 min

Structure (SMILES): O[C@H](c1ccc(F)cc1)C(Cl)(Cl)Cl [(R)-MFTE, (R)-1-(4-fluorophenyl)-2,2,2-trichloro-ethanol]
- speed of action against deltamethrin Form I, in words (Drosophila melanogaster [2]; dosage above 5.30*10^−3/m^2): even faster in action than deltamethrin Form I
- speed of action (lethality) of enantiomers and racemate, in words (Drosophila melanogaster [2]): always faster in action than (S)-MFTE

Structure (SMILES): O[C@H](c1c(F)c(F)c(F)c(F)c1F)C(Cl)(Cl)Cl [(R)-PFTE, (R)-1-perfluorophenyl-2,2,2-trichloro-ethanol]
- speed of action against (RS)-PFTE, in words (Drosophila melanogaster [2]; dosage below 1.06*10^−1/m^2): faster in action than (RS)-PFTE
- speed of action (lethality) of enantiomers and racemate, in words (Drosophila melanogaster [2]): always faster in action than (S)-PFTE
- speed of action against deltamethrin Form I, in words (Drosophila melanogaster [2]; high dosage 1.06*10^−1/m^2 and above): slower in action than deltamethrin Form I
- speed of action against deltamethrin, in words (Drosophila melanogaster [2]; low dosage 5.30*10^−3/m^2): faster in action than deltamethrin

Structure (SMILES): Clc1ccc(C(c2ccc(Cl)cc2)C(Cl)(Cl)Cl)cc1 [DDT, 1,1,1-trichloro-2,2-bis(4-chlorophenyl)ethane, reference compound]
- KT50 against female Drosophila, comparison in words (Drosophila melanogaster [3]): much larger
- observed symptoms of exposed flies (Drosophila melanogaster [3]): induced hyperactivity followed by paralysis, and then death

Structure (SMILES): Clc1ccc(C(c2ccc(Cl)cc2)C(Cl)(Cl)Cl)cc1 [DDT-I, 1,1,1-trichloro-2,2-bis(4-chlorophenyl)ethane, reference compound]
- KT50 (median knockdown time) (Drosophila melanogaster [3]): 261 min

Structure (SMILES): Fc1ccc(C(c2ccc(F)cc2)C(Cl)(Cl)Cl)cc1 [DFDT, reference compound]
- KT50 against female Drosophila, comparison in words (Drosophila melanogaster [3]): much larger
- observed symptoms of exposed flies (Drosophila melanogaster [3]): induced hyperactivity followed by paralysis, and then death

Structure (SMILES): Fc1ccc(C(c2ccc(Cl)cc2)C(Cl)(Cl)Cl)cc1 (stereo not drawn) [MFDT, 1,1,1-trichloro-2,2-(4-chlorophenyl)-(4-fluorophenyl)-ethane]
- observed symptoms of exposed flies (Drosophila melanogaster [3]): induced hyperactivity followed by paralysis, and then death

Structure (SMILES): CC(O)(c1c(F)c(F)c(F)c(F)c1F)C(Cl)(Cl)Cl (stereo not drawn) [PFTP, 2-(perfluorophenyl)-1,1,1-trichloro-propan-2-ol]
- KT50 against female Drosophila, comparison in words (Drosophila melanogaster [3]): comparable to that of crystalline deltamethrin Form I

Structure (SMILES): OC(c1ccc(C(F)(F)F)cc1)C(Cl)(Cl)Cl (stereo not drawn) [TFMTE, 1-(4-(trifluoromethyl)phenyl)-2,2,2-trichloro-ethanol]
- Drosophila knockdown times, comparison in words (Drosophila melanogaster [3]): faster than DDT Form I, but not as fast as PFTE

Structure (SMILES): Fc1ccc(C(c2ccc(Cl)cc2)C(Cl)(Cl)Cl)cc1 [a-(R)-MFDT, 1,1,1-trichloro-2,2-(4-chlorophenyl)-(4-fluorophenyl)-ethane]
- time the amorphous form was stable ([4]; room temperature): 10 days

Structure (SMILES): Clc1ccc(C(c2ccc(Cl)cc2)C(Cl)(Cl)Cl)cc1 [a-DDT, 1,1,1-trichloro-2,2-bis(4-chlorophenyl)ethane]
- time to transformation to crystalline DDT Form I ([4]; room temperature): ≤ 5 h
- KT50 [5]: 120 min
- KT50 (Aedes aegypti): 112 min

Structure (SMILES): Fc1ccc(C(c2ccc(F)cc2)C(Cl)(Cl)Cl)cc1 [a-DFDT]
- time the amorphous form is stable ([4]; addition of 10 wt % PEG 100 emulsifier): at least 120 days
- time the amorphous form was stable ([4]; room temperature): 25 days
- KT50 (median knockdown time) (Drosophila melanogaster [3]): 54 min
- knockdown speed, times faster than a-DDT [5]: 4 times
- KT50 [5]: 29 min
- KT50 (Aedes aegypti): 30 min

Reference: patent publication US11570987B2, “Pesticidal compounds and methods of use” (New York University, priority 2019, dated 2023)
